Experimental data from patent US20250215039A1, “NUCLEOSIDES FOR TREATING CANCER” (PRIMEFOUR THERAPEUTICS, INC., priority 2022, published 2025).
Like-named read-outs stand apart in the source and are kept apart here.

System: cancer cell lines
Experiment: Cancer cell proliferation activity (CellTiterGlo, 72 h)
Format: cell-based
Settings: 72 h, 72 h, read-out: IC50
Procedure, shortened: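 Readout is CellTiterGlo luminescence after 72 h compound exposure (0.1% DMSO final), started one day post-seeding, at 37 °C.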

IC50 (5637 cell line (bladder)): 5.02 µM | IC50 (CLS439 cell line (bladder)): > 50 µM | IC50 (HS729 cell line (muscle)): 4.91 µM | IC50 (JAR cell line (placenta)): > 50 µM | IC50 (U20S cell line, bone): > 50 µM | IC50 (Homo sapiens, 22Rv1, 72 h, 22RV1 cell line (prostate)): > 50 µM | IC50 (Homo sapiens, 786-0, 72 h, 786O cell line (kidney)): > 50 µM | IC50 (Homo sapiens, A204, 72 h, A204 cell line (muscle)): 1.1 µM | IC50 (Homo sapiens, A549, 72 h, A549 cell line, lung): 3.33 µM | IC50 (Homo sapiens, A673, 72 h, A673 cell line (bone)): > 50 µM | IC50 (Homo sapiens, A2780, 72 h, A2780 cell line (ovary)): > 50 µM | IC50 (Homo sapiens, A-375, 72 h, A375 cell line (skin)): 4.58 µM | IC50 (Homo sapiens, A-431, 72 h, A431 cell line (skin)): > 50 µM | IC50 (Homo sapiens, ACHN, ACHN cell line (kidney)): > 50 µM | IC50 (Homo sapiens, ASPC1, 72 h, ASPC1 cell line (pancreas)): > 50 µM | IC50 (Homo sapiens, BT-20, 72 h, BT20 cell line (breast)): > 50 µM | IC50 (Homo sapiens, BXPC-3, 72 h, BXPC3 cell line (pancreas)): > 50 µM | IC50 (Homo sapiens, C-33-A, C33A cell line, endometrial): 2.67 µM | IC50 (Homo sapiens, CAKI-1, 72 h, CAKI1 cell line (kidney)): 3.25 µM | IC50 (Homo sapiens, COLO 205, 72 h, COLO205 cell line (colon)): 2.31 µM | IC50 (Homo sapiens, COLO-678, 72 h, COLO678 cell line (colon)): > 50 µM | IC50 (Homo sapiens, Ca-Ski, CASKI cell line, endometrial): > 50 µM | IC50 (Homo sapiens, Caco-2, 72 h, CACO2 cell line (colon)): > 50 µM | IC50 (Homo sapiens, Calu-6, 72 h, CALU6 cell line (lung)): 6.06 µM | IC50 (Homo sapiens, DLD-1, 72 h, DLD1 cell line (colon)): > 50 µM | IC50 (Homo sapiens, DU-145, 72 h, DU145 cell line (prostate)): > 50 µM | IC50 (Homo sapiens, EFO-21, 72 h, EFO21 cell line (ovary)): > 50 µM | IC50 (Homo sapiens, EJ-28, 72 h, EJ28 cell line (bladder)): > 50 µM | IC50 (Homo sapiens, Granta-519, 72 h, GRANTA-519 cell line (hematological)): 1.06 µM | IC50 (Homo sapiens, HCT-15, 72 h, HCT15 cell line (colon)): > 50 µM | IC50 (Homo sapiens, HCT-116, 72 h, HCT116 cell line (colon)): 3.65 µM | IC50 (Homo sapiens, HEK293, 72 h, HEK293 cell line (kidney)): 3.46 µM | IC50 (Homo sapiens, HL-60, 72 h, HL-60 cell line (hematological)): 3.42 µM | IC50 (Homo sapiens, HT-29, 72 h, HT29 cell line (colon)): > 50 µM | IC50 (Homo sapiens, HT-1080, 72 h, HT1080 cell line (connective tissue)): 3.43 µM | IC50 (Homo sapiens, HeLa, HELA cell line, endometrial): 5.34 µM | IC50 (Homo sapiens, HepG2, 72 h, HEPG2 cell line (liver)): > 50 µM | IC50 (Homo sapiens, Hs-578T, HS578T cell line, breast): > 50 µM | IC50 (Homo sapiens, IGROV-1, 72 h, IGROV1 cell line (ovary)): > 50 µM | IC50 (Homo sapiens, IMR-90, 72 h, IMR90 cell line, lung): 5.39 µM | IC50 (Homo sapiens, J82, 72 h, J82 cell line (bladder)): > 50 µM | IC50 (Homo sapiens, JEG-3, 72 h, JEG3 cell line (placenta)): > 50 µM | IC50 (Homo sapiens, JIMT-1, 72 h, JIMT1 cell line (breast)): 11.8 µM | IC50 (Homo sapiens, K562, 72 h, K-562 cell line (hematological)): 5.04 µM | IC50 (Homo sapiens, Kasumi 1, 72 h, KASUMI-1 cell line (hematological)): 0.5 µM | IC50 (Homo sapiens, L-363, 72 h, L-363 cell line (hematological)): > 50 µM | IC50 (Homo sapiens, LoVo, LOVO cell line (colon)): > 50 µM | IC50 (Homo sapiens, MCF7, 72 h, MCF7 cell line (breast)): 2.6 µM | IC50 (Homo sapiens, MDA-MB-231, 72 h, MDAMB231 cell line (breast)): 2.96 µM | IC50 (Homo sapiens, MDA-MB-435, 72 h, MDAMB435 cell line (skin)): > 50 µM | IC50 (Homo sapiens, MDA-MB-436, 72 h, MDAMB436 cell line (breast)): 3.65 µM | IC50 (Homo sapiens, MDA-MB-468, 72 h, MDAMB468 cell line (breast)): > 50 µM | IC50 (Homo sapiens, MG-63, 72 h, MG63 cell line (bone)): 3.93 µM | IC50 (Homo sapiens, MHH-ES-1, 72 h, MHHES1 cell line (bone)): 4.87 µM | IC50 (Homo sapiens, MIA PaCa-2, 72 h, MIAPACA2 cell line (pancreas)): > 50 µM | IC50 (Homo sapiens, MINO, MINO cell line (hematological)): 1.51 µM | IC50 (Homo sapiens, MV4-11, 72 h, MV4-11 cell line (hematological)): 2.14 µM | IC50 (Homo sapiens, NCI-H23, 72 h, NCI-H23 cell line (lung)): 1.81 µM | IC50 (Homo sapiens, NCI-H82, 72 h, NCIH82 cell line (lung)): > 50 µM | IC50 (Homo sapiens, NCI-H292, 72 h, NCIH292 cell line (lung)): 5.41 µM | IC50 (Homo sapiens, NCI-H460, 72 h, NCIH460 cell line (lung)): > 50 µM | IC50 (Homo sapiens, OVCAR-3, 72 h, OVCAR3 cell line (ovary)): 3.08 µM | IC50 (Homo sapiens, OVCAR-4, 72 h, OVCAR4 cell line (ovary)): 3.18 µM | IC50 (Homo sapiens, PANC-1, 72 h, PANC1 cell line (pancreas)): > 50 µM | IC50 (Homo sapiens, PC-3, 72 h, PC3 cell line (prostate)): 4.81 µM | IC50 (Homo sapiens, PLC-PRF-5, 72 h, PLCPRF5 cell line (liver)): > 50 µM | IC50 (Homo sapiens, Panc1005, 72 h, PANC1005 cell line (pancreas)): > 50 µM | IC50 (Homo sapiens, RD, RD cell line (muscle)): 2.67 µM | IC50 (Homo sapiens, Ramos, RAMOS cell line (hematological)): 1.41 µM | IC50 (Homo sapiens, SAOS-2, 72 h, SAOS2 cell line (bone)): 1.7 µM | IC50 (Homo sapiens, SF-268, 72 h, SF268 cell line (brain)): > 50 µM | IC50 (Homo sapiens, SF-295, 72 h, SF295 cell line (brain)): > 50 µM | IC50 (Homo sapiens, SK-BR-3, 72 h, SKBR3 cell line (breast)): 3.45 µM | IC50 (Homo sapiens, SK-HEP1, 72 h, SKHEP1 cell line (liver)): 3.02 µM | IC50 (Homo sapiens, SK-LMS-1, 72 h, SKLMS1 cell line (uterus)): > 50 µM | IC50 (Homo sapiens, SK-MEL-5, 72 h, SKMEL5 cell line, skin): > 50 µM | IC50 (Homo sapiens, SK-MEL-28, 72 h, SKMEL28 cell line (skin)): 4.19 µM | IC50 (Homo sapiens, SK-N-AS, SKNAS cell line (brain)): 0.96 µM | IC50 (Homo sapiens, SK-N-SH, SKNSH cell line (brain)): 0.91 µM | IC50 (Homo sapiens, SK-OV-3, 72 h, SKOV3 cell line (ovary)): 2.45 µM | IC50 (Homo sapiens, SNB-75, 72 h, SNB75 cell line (brain)): > 50 µM | IC50 (Homo sapiens, SU-DHL10, 72 h, SU-DHL-10 cell line (hematological)): 5.56 µM | IC50 (Homo sapiens, SU-DHL-6, 72 h, SU-DHL-6 cell line (hematological)): > 50 µM | IC50 (Homo sapiens, SW-620, 72 h, SW620 cell line (colon)): > 50 µM | IC50 (Homo sapiens, T-24, 72 h, T24 cell line (bladder)): > 50 µM | IC50 (Homo sapiens, TE-671, 72 h, TE671 cell line (muscle)): 3.08 µM | IC50 (Homo sapiens, THP-1, 72 h, THP-1 cell line (hematological)): 3.01 µM | IC50 (Homo sapiens, U-87 MG, U87MG cell line (brain)): > 50 µM | IC50 (Homo sapiens, UMUC3, 72 h, UMUC3 cell line (bladder)): > 50 µM | IC50 (Homo sapiens, UO-31, 72 h, UO31 cell line (kidney)): > 50 µM | IC50 (Homo sapiens, WSU-NHL, WSU-NHL cell line (hematological)): 2.34 µM | IC50 (MT-3, 72 h, MT3 cell line (breast)): 3.68 µM | IC50 (NCI-H358M, NCIH358M cell line (lung)): 2.69 µM | IC50 (PBMC, PBMC (hematological)): > 50 µM | IC50 (RD-ES, RDES cell line (bone)): > 50 µM
SMILES: C=C[C@]1(CO)O[C@@H](Nc2[nH]c(=O)ncc2Br)C[C@@H]1O [Cpd. No. 3, 5-bromo-6-(((2R,4S,5R)-4-hydroxy-5-(hydroxymethyl)-5-vinyltetrahydrofuran-2-yl)amino)pyrimidin-2(1H)-one]
